Test results from ChEMBL document CHEMBL2406914 (ACS Med Chem Lett, 2013).

Key:
[1] = molecular target: T1, Prostaglandin G/H synthase 1 (Ovis aries, UniProt P05979); test: Inhibition of ovine COX1-mediated arachidonic acid oxidation using [14C]AA as substrate after 5 mins by GC/NICI/MS analysis
T1 sequence (P05979 whole entry): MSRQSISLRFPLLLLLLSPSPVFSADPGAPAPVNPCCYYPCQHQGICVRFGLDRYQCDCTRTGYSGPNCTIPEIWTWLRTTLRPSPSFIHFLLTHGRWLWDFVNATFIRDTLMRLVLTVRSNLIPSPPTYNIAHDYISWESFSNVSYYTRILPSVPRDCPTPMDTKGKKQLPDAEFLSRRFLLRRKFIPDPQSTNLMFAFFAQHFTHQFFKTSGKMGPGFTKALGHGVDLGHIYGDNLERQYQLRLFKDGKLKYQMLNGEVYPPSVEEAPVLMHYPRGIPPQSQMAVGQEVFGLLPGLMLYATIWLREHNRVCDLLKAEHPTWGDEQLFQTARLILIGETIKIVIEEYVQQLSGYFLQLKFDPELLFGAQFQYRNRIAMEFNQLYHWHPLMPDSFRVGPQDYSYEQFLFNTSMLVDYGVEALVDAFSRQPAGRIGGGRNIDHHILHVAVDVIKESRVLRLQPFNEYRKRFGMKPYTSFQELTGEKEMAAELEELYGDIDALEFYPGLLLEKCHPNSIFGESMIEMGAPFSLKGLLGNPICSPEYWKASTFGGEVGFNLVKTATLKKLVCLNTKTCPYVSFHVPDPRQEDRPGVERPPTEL

HepG2 = test: Cytotoxicity against human HepG2 cells assessed as intracellular ATP level after 24 hrs by luciferase reporter gene assay; assay type: cell-based; settings: HepG2, 24 h
[2] = Metabolic stability in rat liver microsomes assessed as compound remaining at 10 uM after 30 mins by LC-MS analysis; settings: human
Myoglobin = molecular target: T2, Myoglobin (Homo sapiens, UniProt P02144); test: Inhibition of myoglobin (unknown origin)-mediated arachidonic acid oxidation using [14C]AA as substrate after 3 hrs by GC/NICI/MS analysis
T2 sequence (P02144 whole entry): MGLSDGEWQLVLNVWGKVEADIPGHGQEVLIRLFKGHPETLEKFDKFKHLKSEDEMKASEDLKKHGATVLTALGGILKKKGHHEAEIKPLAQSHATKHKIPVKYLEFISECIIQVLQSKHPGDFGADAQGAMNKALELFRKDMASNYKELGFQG

Row | IC50 [1] [µM] | remaining at 0.5 h, 10 µM [2] [%] | SMILES | EC50 (HepG2) [µM] | IC50 (Myoglobin) [µM]
1 | > 1000 | 87 | Cc1nc2c(c(C)c1O)CNC(=O)N2 | 2960 | –
2 | 198 | 97 | Cc1nc2c(c(C)c1O)COC(=O)N2 | > 5000 | –
3 | 451 | 108 | O=C1NCc2cc(O)cnc2N1 | 4760 | –

Row | SMILES | IC50 [1] [µM] | remaining at 0.5 h, 10 µM [2] [%] | EC50 (HepG2) [µM] | IC50 (Myoglobin) [µM]
4 | CC(=O)Nc1ccc(O)cc1 [ACETAMINOPHEN] | 372 | – | 594 | 2.3
